The source of these data is US20250228958A1, “TSP1 INHIBITOR” (Daiichi Sankyo Company, Limited, priority 2022, published 2025).

Entries after “also recorded” stand apart in the source; their conditions may differ. Positions of bridges follow the written chain, without caps; N, C: chain ends. Non-standard residues stand in square brackets, D forms with d. Residues, ends and D or L forms follow the SMILES beside them. Chains are numbered I, II in the order given. No end group written: not given here. maleimide = maleimide-group-derived moiety in the linking group, forming a thioether bond with the thiol of a cysteine residue of the carrier molecule; KPEG = (2S)-6-amino-2-[[2-(methoxy-oligo(ethoxy))acetyl]amino]hexanoic acid (Lys with N-alpha methoxy-PEG acetyl); 2Nal = N[C@@H](Cc1ccc2ccccc2c1)C(=O)O; Gly(cPent) = N[C@H](C(=O)O)C1CCCC1; Agb = N=C(N)NCC[C@H](N)C(=O)O; Tle = CC(C)(C)[C@H](N)C(=O)O; hCys = N[C@@H](CCS)C(=O)O; P12P = not defined here

Series [1] has as its target T1, human TSP1 (Homo sapiens, UniProt P07996).
T1 construct: Thrombospondin human platelet (Calbiochem, 605225); purchased Calbiochem 605225; host or cells: human platelets (natural source, not recombinant)
In words: Cell adhesion inhibition assay (HUVEC adhesion to TSP1-coated plate). The series is classed as cell-based. The following applies: inhibition of HUVEC adhesion to human TSP1-coated plate.
Experimental: • 384-well Low Flange Black Flat Bottom Polystyrene Not Treated Microplate (Corning, 3573) • Proteosave(registered trademark) SS 15 mL (Sumitomo Bakelite, MS-52150) • Thrombospondin human platelet (Calbiochem, 605225) • HUVEC (KURABO, KE-4109P10) • EGM-2 MV (Lonza, CC-3202): for HUVEC passaging • Collagen coated dish (IWAKI, 4020-010): for HUVEC passaging • Lipidure(registered trademark)-BL802 (NOF Corporation), 5% solution • DMEM low glucose (GIBCO, 11054-020) • Bovine serum albumin (BSA) solution 30% (Sigma A9205) • CellTiter-Glo 2.0 (Promega G9242) […]
To maintain human umbilical vein endothelial cells, HUVECs, EGM2-MV and a collagen coated dish were used (the cells were ceased to be used after 10th or 11th passage since the cell proliferation rate declined at this stage). […] After removal of supernatant, the cells were resuspended in a DMEM buffer, counted for cell number, and diluted to 6000 cells/10 μL. […]
The culture medium was removed, and the plate was washed twice with 30 L/well of HBSS/Hepes 0.5% BSA. […] Fluorescence emission was detected using EnVision Xcite Multilabel Reader (produced by Perkin Elmer).
On the basis of the measured fluorescence values, the IC50 values (nM) of the different cyclic peptides and conjugates for inhibition of cell adhesion were calculated. […]

Series [2] can be described thus: Serum stability test, mouse serum. The series is classed as in vitro ADME. The source says:
(§1) • Mouse serum (BALB/c CrSlc, male, Japan SLC, Inc.) • Monkey serum (cynomolgus monkey, male, Japan SLC, Inc.) • Human serum (Caucasian, pool of 5 males and 5 females, KAC Co., Ltd.) • Phenacetin (Nacalai Tesque, Inc.) • Niflumic acid (Nacalai Tesque, Inc.) • Furosemide (Nacalai Tesque, Inc.) • Acetonitrile (FUJIFILM Wako Pure Chemical Corporation) • Methanol (FUJIFILM Wako Pure Chemical Corporation) • Formic acid (FUJIFILM Wako Pure Chemical Corporation) • Dimethyl sulfoxide (DMSO) (FUJIFILM Wako Pure Chemical Corporation)
(§2) Solutions of Phenacetin, niflumic acid, and furosemide were prepared in DMSO at 10 μg/ml, 150 μg/ml, and 200 μg/ml, respectively. 10 μg/ml of phenacetin in DMSO, 150 μg/ml of niflumic acid in DMSO, and 200 μg/ml of furosemide in DMSO were dissolved in a mixture of […]/methanol (75/25, v/v) (final concentrations: phenacetin; 1 ng/mL, niflumic acid: 15 ng/mL, and furosemide 20 ng/mL), and formic acid was added to the prepared test solution (final concentration: 1% (v/v)) to prepare a formic acid-containing IS solution.
(§3) The test substances were prepared in DMSO to a concentration of 10 mM each. Further, the solution was diluted with DMSO to a concentration of 2 mM to make a test substance solution.
(§4) Each serum was preincubated at 37° C. for 5 minutes, and then the test substance solution was added to a final concentration of 20 μM to initiate the reaction. The test substance-added serum was incubated at 37° C. At 0 and 4 hours after the start of the reaction, a portion of the serum was taken out and added to the formic acid-containing IS solution to stop the reaction, which was used as a measurement sample.
(§5) The test substance and IS (phenacetin, niflumic acid, and furosemide) in the measurement sample were measured by LC-MS/MS, and the peak area ratio (IS ratio) of the test substance to IS (any of phenacetin, niflumic acid, and furosemide) was calculated.
(§6) The percentage of the IS ratio at 4 hours after the start of the reaction relative to that at 0 hours after the start of the reaction was used as a residual ratio to evaluate serum stability.

Series [3] can be described thus: Serum stability test, human serum. The following applies: both sexes, residual ratio: IS ratio at 4 hours relative to 0 hours, 37° C. The series is classed as in vitro ADME.
From the text: as §1, §2, §3, §4, §5, §6

Series [4] in a line: Serum stability test, monkey serum. The series is classed as in vitro ADME, cynomolgus monkey. Particulars: male, residual ratio: IS ratio at 4 hours relative to 0 hours, 37° C.
From the text: as §1, §2, §3, §4, §5, §6

For series [5], the system named is C57BL/6 mice, ischemic limb blood flow. In words: Blood flow improvement measurement tests (femoral artery/vein ligation and excision, laser Doppler). The series is classed as in vivo, mouse. Particulars: for blood flow AUC, % of vehicle group mean: blood flow AUC from beginning to end of measurement, ratio to vehicle-treated group mean; for %, ischemia/nonischemia (blood flow on the last day of measurement): mean ± standard error, ratio of ischemic limb flow to non-ischemic limb flow. The source says: Six to seven-week-old C57BL/6 mice were purchased from Charles River Laboratories Japan Inc., and acclimated over six days by feeding with a FR-2 solid diet (produced by Funabashi Farm Co., Ltd.). The rearing facility switched between light and dark modes in a 12-hour cycle with light turning on at 7 a.m. and turning off at 7 p.m. Under isoflurane inhalation anaesthesia, the left thighs of the mice were dissected, and the superficial femoral arteries and veins (from just below the deep femoral arteries to the popliteal artery and vein) were ligated and excised. […] Five mice were used for each treatment group.
Blood flows were measured in ischemic (left) and non-ischemic (right) limbs using a laser Doppler perfusion imager (PeriScan PIM III, Moor LD12-HR). The improvement of blood flow was evaluated by the ratio of ischemic limb flow to non-ischemic limb flow. […] In addition, blood flow AUC was calculated to determine the ratio (%) of the mean value of the test substance-treated group to the mean value of the vehicle-treated group.

For series [6], the target named is Thrombospondin human platelet (Calbiochem, 605225) (human, UniProt P07996 19-1170). The series is described as follows: cell-based or functional assay.
Thrombospondin human platelet (Calbiochem, 605225), sequence (P07996 19-1170 limits assumed): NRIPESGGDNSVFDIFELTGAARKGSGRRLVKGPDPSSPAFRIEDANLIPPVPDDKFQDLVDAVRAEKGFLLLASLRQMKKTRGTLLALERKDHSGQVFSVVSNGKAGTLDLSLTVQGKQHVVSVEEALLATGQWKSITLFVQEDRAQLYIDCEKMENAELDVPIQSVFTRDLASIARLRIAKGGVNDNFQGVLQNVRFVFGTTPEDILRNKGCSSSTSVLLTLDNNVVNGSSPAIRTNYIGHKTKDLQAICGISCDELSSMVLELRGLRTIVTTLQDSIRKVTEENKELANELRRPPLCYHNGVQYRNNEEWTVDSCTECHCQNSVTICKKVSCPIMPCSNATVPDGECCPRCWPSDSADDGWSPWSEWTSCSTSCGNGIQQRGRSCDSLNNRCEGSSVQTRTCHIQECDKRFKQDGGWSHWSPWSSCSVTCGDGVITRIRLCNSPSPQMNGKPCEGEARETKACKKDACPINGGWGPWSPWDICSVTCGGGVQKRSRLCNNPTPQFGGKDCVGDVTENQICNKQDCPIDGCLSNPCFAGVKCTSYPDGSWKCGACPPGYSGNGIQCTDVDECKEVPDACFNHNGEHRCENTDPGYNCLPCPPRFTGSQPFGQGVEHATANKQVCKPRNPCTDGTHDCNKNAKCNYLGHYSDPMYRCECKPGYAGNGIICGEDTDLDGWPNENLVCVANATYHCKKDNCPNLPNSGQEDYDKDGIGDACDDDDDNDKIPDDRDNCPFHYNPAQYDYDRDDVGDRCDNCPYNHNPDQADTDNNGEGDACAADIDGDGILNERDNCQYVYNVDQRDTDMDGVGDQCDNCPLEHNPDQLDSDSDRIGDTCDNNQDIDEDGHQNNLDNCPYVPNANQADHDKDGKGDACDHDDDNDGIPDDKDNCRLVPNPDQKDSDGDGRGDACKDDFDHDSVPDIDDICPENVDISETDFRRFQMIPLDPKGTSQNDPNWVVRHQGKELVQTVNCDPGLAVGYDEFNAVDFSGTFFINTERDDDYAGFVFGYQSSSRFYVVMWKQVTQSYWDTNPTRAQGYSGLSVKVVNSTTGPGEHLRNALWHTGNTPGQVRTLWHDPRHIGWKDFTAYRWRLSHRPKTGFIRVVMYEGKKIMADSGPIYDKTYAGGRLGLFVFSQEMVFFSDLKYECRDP

T1 sequence (P07996 19-1170): as the sequence (P07996 19-1170 limits assumed) above

In general, IC50 refers to the concentration that gives 50% inhibition. Molecule `N=C(N)NCCC[C@@H]1NC(=O)[C@H](Cc2ccc3ccccc3c2)NC(=O)CSC[C@@H](C(N)=O)NC(=O)[C@H](C2CCCC2)NC(=O)[C@H](Cc2c[nH]c3ccccc23)NC(=O)[C@H](CCCNC(=N)N)NC(=O)[C@@H]2CCSSCC[C@H](NC1=O)C(=O)NCC(=O)N[C@@H](CCNC(=N)N)C(=O)N[C@@H](CC(N)=O)C(=O)N[C@@H](Cc1c[nH]c3ccccc13)C(=O)N2` [Peptide-1] ({CH2CO}-[2Nal]R[hCys]G[Agb]NW[hCys]RW[Gly(cPent)]C-NH2; disulfide 3-8; thioether N-12) came in with an IC50 in series [1] of 0.0126 µM. Also, the share remaining at 4 h, 20 μM in series [2] (male, BALB/c CrSlc, mouse, mouse serum, residual ratio: IS ratio at 4 hours relative to 0 hours, 20 μM, 37° C.) came to 101%; in series [3], 93.9%; in series [4], 90.6%. Besides, the “serum stability (in words)” value in series [2] (statement covers mouse, monkey and human serum, 4 hours) is “high serum stability; also recorded: higher serum stability”.

Consider `CC(C)(C)[C@@H]1NC(=O)[C@H](Cc2ccc3ccccc3c2)NC(=O)CSC[C@@H](C(N)=O)NC(=O)[C@H](C2CCCC2)NC(=O)[C@H](Cc2c[nH]c3ccccc23)NC(=O)[C@H](CCCNC(=N)N)NC(=O)[C@@H]2CCSSCC[C@H](NC1=O)C(=O)NCC(=O)N[C@@H](CCCNC(=N)N)C(=O)N[C@@H](CC(N)=O)C(=O)N[C@@H](Cc1c[nH]c3ccccc13)C(=O)N2` [Peptide-8] ({CH2CO}-[2Nal][Tle][hCys]GRNW[hCys]RW[Gly(cPent)]C-NH2; disulfide 3-8; thioether N-12), for which the IC50 in series [1] is 0.0126 µM.

Turning to `CC(=O)N[C@H]1[C@H]([C@H](O)[C@H](O)CO)O[C@](CO)(OC[C@H]2O[C@@H](OC3[C@@H](CO)C[C@H](O[C@@H]4[C@@H](OC[C@H]5OC(O[C@H]6[C@H](O)[C@@H](NC(C)=O)C(O[C@H]7[C@H](O)[C@@H](NC(C)=O)C(OCC(=O)NCCCC[C@H](NC(=O)CNC(=O)CNC(=O)CNC(=O)CNC(=O)[C@@H]8CSCC(=O)N[C@@H](Cc9ccc%10ccccc%10c9)C(=O)N[C@H](CCCNC(=N)N)C(=O)N[C@@H](CO)C(=O)NCC(=O)N[C@@H](CCNC(=N)N)C(=O)N[C@H](CC(N)=O)C(=O)N[C@@H](Cc9c[nH]c%10ccccc9%10)C(=O)N[C@@H](C(C)N)C(=O)N[C@H](CCCNC(=N)N)C(=O)N[C@@H](Cc9c[nH]c%10ccccc9%10)C(=O)N[C@@H](C9CCCC9)C(=O)N8)C(=O)NCCOCCOCCOCCOCCOCCOCCOCCOCCOCCOCCOCCOCCC(=O)NCCOCCOCCOCCOCCOCCOCCOCCOCCOCCOCCOCCOCCC(=O)N[C@H](CCCCNC(=O)CCN8C(=O)CC(C)C8=O)C(N)=O)O[C@@H]7CO)O[C@@H]6CO)[C@@H](O)[C@@H](O[C@H]6O[C@H](CO)[C@@H](O)[C@H](O)[C@@H]6O[C@@H]6O[C@H](CO)C(O[C@@H]7O[C@H](CO[C@]8(C(=O)O)C[C@H](O)[C@@H](NC(C)=O)[C@H]([C@H](O)[C@H](O)CO)O8)[C@H](O)[C@H](O)[C@H]7O)[C@H](O)[C@H]6NC(C)=O)[C@@H]5O)O[C@H](CO)[C@@H](O)[C@@H]4O)[C@H](NC(C)=O)[C@H]3O)[C@H](O)[C@@H](O)[C@H]2O)C[C@@H]1O` (some centres unmarked) [Conjugate-56], in series [5] (0.3 mg/kg), the “blood flow AUC, % of vehicle group mean” value worked out at 187.6% and the “%, ischemia/nonischemia (blood flow on the last day of measurement)” value is reported as 40.2 ± 5.6%. Moreover, in series [5] (1 mg/kg), the “blood flow AUC, % of vehicle group mean” value was determined as 318.4% and the “%, ischemia/nonischemia (blood flow on the last day of measurement)” value was 74.8 ± 11.0%.

B1: Conjugate-10 (other)
peptide: [2Nal]R[hCys]GRDW[hCys]RW[Gly(cPent)]CGSGSDD[KPEG][P12P][P12P]K(maleimide)-NH2
chain: DKTHTCPPCPAPEAAGGPSVFLFPPKPKDTLMISRTPEVTCVVVDVSHEDPEVKFNWYVDGVEVHNAKTKPREEQYNSTYRVVSVLTVLHQDWLNGKEYKCKVSNKALAAPIEKTISKAKGQPREPQVYTLPPSREEMTKNQVSLTCLVKGFYPSDIAVEWESNGQPENNYKTTPPVLDSDGSFFLYSKLTVDKSRWQQGNVFSCSVMHEALHNHYTQKSLSLSPGK
modifications: disulfide I:3-I:8; not fully specified; reading uncertain; also: Lys22 maleimide side chain thioether-linked to Fc hinge Cys6 and Cys9 (Eu 226, 229), thioether at chain A 1 at chain A 12 to a chain's N-terminus
For B1, the “IC50 for inhibition of cell adhesion (HUVEC to coated human TSP1)” value in series [6] was determined as 0.0128 µM.
